{"source": "ChEMBL document CHEMBL2074390", "about": "“Vectorial transport of bile salts across MDCK cells expressing both rat Na+-taurocholate cotransporting polypeptide and rat bile salt export pump” (Am J Physiol Gastrointest Liver Physiol, 2004)", "test_system": "MDCK", "description": "TP_TRANSPORTER: transepithelial transport (basal to apical) in Ntcp/Bsep double transfected MDCK cell"}
{"molecule": "C[C@H](CCC(=O)NCCS(=O)(=O)O)[C@H]1CC[C@H]2[C@@H]3[C@H](O)C[C@@H]4C[C@H](O)CC[C@]4(C)[C@H]3C[C@H](O)[C@]12C", "values": [{"measurement": "Km", "value": 22.2, "unit": "µM"}]}
